This note sets out measurements from US5658916A, “Drug active on the central nervous system, a process for the preparation thereof and pharmaceutical compositions containing it” (Vita-Invest, S.A., priority 1994, dated 1997).

One test concerns the target T1, D2 receptors (Rattus norvegicus, UniProt P61169).
T1 construct: Striate tissue of rat brain was prepared; from tissue; host or cells: rat brain striatum, crude membrane homogenate
The experiment in a line: Displacement of 3H-spiroperidol binding to D2 receptors (striate tissue of rat brain). How it is done:
Studies on binding to D2 receptors.
These were carried out as described by Leysen et al (1978), with certain modifications. Striate tissue of rat brain was prepared, with homogenization in 20 volumes of Tris-HCl buffer in ice (50 mM, pH=7.7, 4° C.), The homogenate was centrifuged (40,000 g, 10 min) and the pellet was suspended in 10 volumes of cold buffer and recentrifuged. The final pellet was suspended in 10 volumes of 50 mM Tris-HCl buffer, with 120 mM of NaCl and 5 mM of […] (pH=7.7). The displacement studies were carried out with 25 μl of ^3 H-spiroperidol (0.2 nM, NEN), 25 μl of cold displacer and 200 μl of tissue. The incubation (37° C., 15 min) was terminated by rapid filtering through Whatman GF/C filters.
Background: In a radioligand displacement assay an active substance lowers the binding of a labelled ligand.

The target in another test is α1-adrenergic receptors. Description: Displacement of 3H-prazosin binding to α1-adrenergic receptors (rat brain cortex). The settings on record: read-out: Displacement (Ki, nM) of the binding of 3H-prazosin to α1-adrenergic receptors, 3H-prazosin 0.5 nM, 37° C., 15 min, pH 7.7. As to the method:
Binding to at adrenergen receptors
These were carried out as described by Morrow et al . […] Rat brain cortical tissue was obtained, with homogenization in 20 volumes of Tris-HCl buffer in ice (50 mM, pH=7.7, 4° C.). The homogenate was centrifuged (25,000 rpm/12 min at 4° C.) and the pellet was rehomogenized, being finally resuspended in 50 mM Tris-HCl buffer, pH=7.7 (dilution 1:200). […] The incubation (37° C., 15 min) was terminated by rapid filtering through Whatman GF/C filters, followed by washing twice with […] of Tris-HCl buffer, 50 mM.

The target in a further test is T2, 5HT2 receptors (Rattus norvegicus, UniProt P14842).
T2 construct: Front cortex of rat brain was prepared; from tissue; host or cells: rat brain frontal cortex, crude membrane homogenate
The experiment in a line: Displacement of 3H-ketanserine binding to 5HT2 receptors (front cortex of rat brain). Particulars: 3H-ketanserine 0.5 nM, 37° C., 15 min. As to the method:
These were carried out as described by Leysen et al (1978), with certain modifications. […] The incubation (37° C., 15 min) was terminated by rapid filtering through Whatman GF/C filters.

Like-named read-outs stand apart in the source and are kept apart here.

T1 sequence (P61169 whole entry): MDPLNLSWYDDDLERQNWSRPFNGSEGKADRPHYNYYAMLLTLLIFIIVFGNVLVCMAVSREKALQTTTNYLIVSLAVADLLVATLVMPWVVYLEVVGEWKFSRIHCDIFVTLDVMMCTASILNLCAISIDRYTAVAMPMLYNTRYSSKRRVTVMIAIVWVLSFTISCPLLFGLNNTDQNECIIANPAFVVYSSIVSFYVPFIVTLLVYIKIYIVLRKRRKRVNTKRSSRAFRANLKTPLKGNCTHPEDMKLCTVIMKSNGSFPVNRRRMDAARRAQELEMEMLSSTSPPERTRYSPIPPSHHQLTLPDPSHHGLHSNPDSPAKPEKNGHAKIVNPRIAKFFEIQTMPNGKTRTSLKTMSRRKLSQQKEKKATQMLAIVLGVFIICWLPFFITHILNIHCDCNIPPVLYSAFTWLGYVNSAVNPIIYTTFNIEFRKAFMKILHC
T2 sequence (P14842 whole entry): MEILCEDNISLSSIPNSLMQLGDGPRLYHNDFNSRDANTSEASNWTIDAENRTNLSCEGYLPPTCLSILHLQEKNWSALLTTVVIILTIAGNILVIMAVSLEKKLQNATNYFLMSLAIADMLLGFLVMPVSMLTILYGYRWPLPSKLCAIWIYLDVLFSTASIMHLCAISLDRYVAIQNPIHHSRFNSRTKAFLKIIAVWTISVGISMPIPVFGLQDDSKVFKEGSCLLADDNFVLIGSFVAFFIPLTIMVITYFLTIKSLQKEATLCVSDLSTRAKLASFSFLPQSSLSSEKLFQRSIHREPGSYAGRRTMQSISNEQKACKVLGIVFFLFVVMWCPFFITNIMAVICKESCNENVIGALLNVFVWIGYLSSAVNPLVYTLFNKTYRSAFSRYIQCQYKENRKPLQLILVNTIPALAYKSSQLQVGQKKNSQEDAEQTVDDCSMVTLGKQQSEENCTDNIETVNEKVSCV

What is called Ki is a measure of affinity in units of concentration, obtained from inhibition or displacement. Consider `Cc1nc2sccn2c(=O)c1CCN1CCC(=C(c2ccc(F)cc2)c2ccc(F)cc2)CC1` [Ritanserine, reference compound], for which the Ki at D2 receptors (striate rat tissue, 3H-spiroperidol 0.2 nM, 37° C., 15 min, pH 7.7) worked out at 0.0477 µM; on α1-adrenergic receptors, 29.6 nM.
With `Cc1nc2n(c(=O)c1CCN1CC=C(c3noc4cc(F)ccc34)CC1)CCCC2` [Compound I, 3-{2-[4-(6-fluoro-benzo[d]isoxazol-3-yl)-3,6-dihydro-2H-pyridin-1-yl]-ethyl}-2-methyl-6,7,8,9-tetrahydropyrido[1,2-a]-pyrimidin-4-one], the Ki on D2 receptors turned out to be 0.022 µM; at 5HT2 receptors, 0.0017 µM; at α1-adrenergic receptors, 14.6 nM.
